From patent publication US7312193B2, “Calcium phosphopeptide complexes” (The University of Melbourne, priority 1997, dated 2007) come the findings set out here.

A short description of assay [1]: Calcium phosphate binding by CPP and synthetic homologues and analogues. As to conditions: for Vca: calcium bound per peptide; for VPi: inorganic phosphate bound per peptide; for Ca/P: ratio of bound Ca to bound Pi; for Ca bound per molecule / Pi bound per molecule: maximal binding, 0.1% w/v peptide. The source says:
Casein phosphopeptides containing the Ser(P) cluster, i.e. the core sequence motif Ser(P)-Ser(P)-Ser(P)-Glu-Glu-(SEQ ID NO: 5), have a marked ability to stabilize calcium phosphate in solution. Solutions containing 0.1% w/v αs1(59-79) (SEQ ID NO: 1) at various pH, calcium and phosphate concentrations, but constant ionic strengths were used to characterize the peptide's interaction with calcium phosphate.
The ion activity products for the various calcium phosphate phases [hydroxyapatite (HA); octacalcium phosphate (OCP); tricalcium phosphate (TCP); amorphous calcium phosphate (ACP); and dicalcium phosphate dihydrate (DCPD) were determined from the free calcium and phosphate concentrations at each pH using a computer program that calculates the ion activity coefficients through the use of the expanded Debye-Hückel equation and takes into account the ion pairs CaHPO4^o, CaH2PO4^+, CaPO4^−and CaOH^+ the dissociation of H3PO4 and H2O and the ionic strength. […] The peptide αs1(59-79) (SEQ ID NO: 1) binds to forming ACP clusters producing a metastable solution preventing ACP growth to the critical size required for nucleation and precipitation. The binding of αs1(59-79) (SEQ ID NO: 1) to ACP results in the formation of colloidal complexes with the unit formula [αs1(59-79) (SEQ ID NO: 1)(ACP)8]n where n is equal to or greater than one. It is likely that the predominant form is n=6 as αs1(59-79) (SEQ ID NO: 1) cross-linked with glutaraldehyde in the presence of ACP runs as a hexamer on polyacrylamide gel electrophoresis.
The relationship between CPP structure and interaction with amorphous calcium phosphate was investigated using a series of synthetic peptide homologues and analogues indicated in Table 1.

A short description of assay [2]: CPP and synthetic peptide binding to HA at 37° C. To be noted: affinity constant. From the text:
Similarly, we investigated the adsorption of the CPP and synthetic homologues and analogues onto HA (Table 2).

Square brackets hold non-standard residues; d marks the D form. Ends that are not written are not given here. pT = C[C@@H](OP(=O)(O)O)[C@H](N)C(=O)O; pS = N[C@@H](COP(=O)(O)O)C(=O)O

For IVPN[pS]VEQ [αs1(71-78)], in assay [1], the “calcium phosphate binding” value is on record as “did not bind calcium phosphate”, the Vca amounted to 0 mol/mol and the VPi is reported as 0 mol/mol.
With TθθEE (T[pT][pT]EE), the K in assay [2] is 1,013 ml/μmol.
SΣΣEE (S[pS][pS]EE): in assay [1], the Vca is recorded as 2 mol/mol, the VPi turned out to be 1 mol/mol and the Ca/P amounted to 2.0.
For SθθEE (S[pT][pT]EE), in that order: 2 mol/mol, 1 mol/mol and 2.0.
For AΣAΣAE (A[pS]A[pS]AE), in assay [1], the Vca was found to be 0 mol/mol and the VPi stood at 0 mol/mol.
Regarding DΣΣEE (D[pS][pS]EE), in assay [1], the Vca was 2 mol/mol, the VPi is 1 mol/mol and the Ca/P was found to be 2.0. The K in assay [2] is 6,579 ml/μmol.
As for θθTEE, in assay [2], the K is given as 1,799 ml/μmol.
As for AΣAE (A[pS]AE), in assay [1], the Vca is on record as 0 mol/mol and the VPi was determined as 0 mol/mol.
Take “QMEAEΣIΣΣΣEEIVPNΣVEQK (QMEAE[pS]I[pS][pS][pS]EEIVPN[pS]VEQK; listed as Bos sp.) [αs1(59-79), tryptic casein phosphopeptide]”: in assay [1], the Vca worked out at 24 mol/mol, the VPi was determined as 16 mol/mol, the “Ca bound per molecule” value is reported as 24 per molecule and the “Pi bound per molecule” value came out at 16 per molecule. In assay [1], the Ca/P came to 1.5. Further, in assay [2], the K stood at 415 mL/µmol.
For the substance EΣLΣΣΣEE [β(14-21)], in assay [1], the Vca was determined as 12 mol/mol, the VPi is reported as 8 mol/mol and the Ca/P worked out at 1.5.
For “RELEELNVPGEIVEΣLΣΣΣEESITR (RELEELNVPGEIVE[pS]L[pS][pS][pS]EESITR; listed as Bos sp.) [β(1-25), tryptic casein phosphopeptide]” the same measures were 24 mol/mol, 16 mol/mol and 1.5.
In the case of EAIAΣAEA (EAIA[pS]AEA), in assay [1], the Vca was 0 mol/mol and the VPi is recorded as 0 mol/mol.
Turning to θTθEE ([pT]T[pT]EE), the K in assay [2] was determined as 837 mL/µmol.
Consider IAΣAEA (IA[pS]AEA), for which, in assay [1], the Vca is recorded as 0 mol/mol and the VPi is recorded as 0 mol/mol.
“AcGlu-Ser(P)-Ile-Ser(P)-Ser(P)-Ser(P)-Glu-GluNHMe [αs1(63-70)]”: in assay [1], the Vca was 12 mol/mol, the VPi is 8 mol/mol, the “Ca bound per molecule” value stood at 12 per molecule and the “Pi bound per molecule” value is 8 per molecule. Also, the Ca/P in assay [1] is on record as 1.5. The K in assay [2] is listed as 10,370 ml/μmol.
Take [pS][pS][pS]EE [ΣΣΣEE]: in assay [1], the Vca is recorded as 9 mol/mol, the VPi turned out to be 6 mol/mol and the Ca/P came to 1.5. Further, the K in assay [2] was 12,845 ml/μmol.
As for “Gln-Met-Glu-Ala-Glu (QMEAE) [αs1(59-63)]”, in assay [1], the “calcium phosphate binding” value is given as “did not bind calcium phosphate”, the Vca was 0 mol/mol and the VPi is 0 mol/mol.
Turning to AΣAΣAΣAΣAE (A[pS]A[pS]A[pS]A[pS]AE), in assay [1], the Vca stood at 6 mol/mol, the VPi was found to be 4 mol/mol and the Ca/P was 1.5.
Turning to EΣΣEE (E[pS][pS]EE), in assay [1], the Vca is reported as 2 mol/mol, the VPi is recorded as 1 mol/mol and the Ca/P is listed as 2.0. Moreover, the K in assay [2] is listed as 1,513 ml/μmol.
Take AΣAΣAΣAE (A[pS]A[pS]A[pS]AE): in assay [1], the Vca came to 2 mol/mol, the VPi was determined as 1 mol/mol and the Ca/P is 1.5.
